From ChEMBL document CHEMBL3885861, “Open TG-GATES”

Species: Rattus norvegicus
Assay: Open TG-GATES - Regimen: Single
Type: toxicity, organism-based, Sprague-Dawley
Set-up: regimen Single, gender Male, age 6 weeks
Details: in vivo, po, 450 mg/kg, route gavage, dose level High; for APTT / Bas / Eos / Fbg / Hb / Ht / Lym / MCH / MCHC / MCV / Mono / Neu / PT / Plat / RBC / Ret / WBC: tissue Blood; for KIDNEY_L / KIDNEY_R / KIDNEY_TOTAL: tissue Kidney; for LIVER: tissue Liver; for ALP / ALT / AST / BUN / CRE / DBIL / GLC / K / LDH / Na / PL / RALB / TBIL / TC / TG / TP / gamma-GTP: tissue Plasma

Structure (SMILES): CC(CCc1ccccc1)NCC(O)c1ccc(O)c(C(N)=O)c1 (stereo unspecified) [LABETALOL]
- TERMINAL_BW (3 h): 212.9 g
- APTT (3 h): 17.6 s
- Bas (3 h): 0%
- Eos (3 h): 1%
- Fbg (3 h): 255.2 mg/dL
- Hb (3 h): 12.2 g/dL
- Ht (3 h): 35.8%
- Lym (3 h): 76%
- MCH (3 h): 21.5 pg
- MCHC (3 h): 34.1%
- MCV (3 h): 62.9 fL
- Mono (3 h): 3.2%
- Neu (3 h): 19.4%
- PT (3 h): 13 s
- Plat (3 h): 109.9 x10_4/uL
- RBC (3 h): 569.4 x10_4/ul
- Ret (3 h): 8.1%
- WBC (3 h): 70.3 x10_2/uL
- KIDNEY_L (3 h): 1 g
- KIDNEY_R (3 h): 0.9 g
- KIDNEY_TOTAL (3 h): 1.9 g
- LIVER (3 h): 9.4 g
- ALP (3 h): 1740.2 IU/L
- ALT (3 h): 47 IU/L
- AST (3 h): 73 IU/L
- BUN (3 h): 13.2 mg/dL
- CRE (3 h): 0.2 mg/dL
- DBIL (3 h): 0.01 mg/dL
- GLC (3 h): 198.4 mg/dL
- K (3 h): 3.9 meq/L
- LDH (3 h): 56.8 IU/L
- Na (3 h): 142.4 meq/L
- PL (3 h): 124 mg/dL
- RALB (3 h): 2.4 g/dL
- TBIL (3 h): 0.04 mg/dL
- TC (3 h): 68.4 mg/dL
- TG (3 h): 39.2 mg/dL
- TP (3 h): 5.2 g/dL
- gamma-GTP (3 h): 1.4 IU/L
- TERMINAL_BW (6 h): 216.2 g
- APTT (6 h): 16.6 s
- Bas (6 h): 0%
- Eos (6 h): 1%
- Fbg (6 h): 288.6 mg/dL
- Hb (6 h): 12.2 g/dL
- Ht (6 h): 36.2%
- Lym (6 h): 75.4%
- MCH (6 h): 21.9 pg
- MCHC (6 h): 33.8%
- MCV (6 h): 64.8 fL
- Mono (6 h): 2.6%
- Neu (6 h): 20.4%
- PT (6 h): 12.6 s
- Plat (6 h): 112.1 x10_4/uL
- RBC (6 h): 561 x10_4/ul
- Ret (6 h): 8.2%
- WBC (6 h): 89.2 x10_2/uL
- KIDNEY_L (6 h): 1 g
- KIDNEY_R (6 h): 0.9 g
- KIDNEY_TOTAL (6 h): 1.9 g
- LIVER (6 h): 9 g
- ALP (6 h): 1401.4 IU/L
- ALT (6 h): 42.6 IU/L
- AST (6 h): 69.8 IU/L
- BUN (6 h): 10 mg/dL
- CRE (6 h): 0.2 mg/dL
- DBIL (6 h): 0.006 mg/dL
- GLC (6 h): 188.8 mg/dL
- K (6 h): 4.1 meq/L
- LDH (6 h): 53.4 IU/L
- Na (6 h): 143.4 meq/L
- PL (6 h): 131 mg/dL
- RALB (6 h): 2.5 g/dL
- TBIL (6 h): 0.038 mg/dL
- TC (6 h): 78 mg/dL
- TG (6 h): 23.2 mg/dL
- TP (6 h): 5.2 g/dL
- gamma-GTP (6 h): 1 IU/L
- TERMINAL_BW (9 h): 218.2 g
- APTT (9 h): 16 s
- Bas (9 h): 0%
- Eos (9 h): 0.8%
- Fbg (9 h): 285 mg/dL
- Hb (9 h): 12.8 g/dL
- Ht (9 h): 37.5%
- Lym (9 h): 75.4%
- MCH (9 h): 22.6 pg
- MCHC (9 h): 34.1%
- MCV (9 h): 66.1 fL
- Mono (9 h): 2%
- Neu (9 h): 21.4%
- PT (9 h): 12.9 s
- Plat (9 h): 98.6 x10_4/uL
- RBC (9 h): 567 x10_4/ul
- Ret (9 h): 8%
- WBC (9 h): 90.3 x10_2/uL
- KIDNEY_L (9 h): 0.9 g
- KIDNEY_R (9 h): 0.9 g
- KIDNEY_TOTAL (9 h): 1.8 g
- LIVER (9 h): 8.5 g
- ALP (9 h): 1515.4 IU/L
- ALT (9 h): 49.6 IU/L
- AST (9 h): 71.2 IU/L
- BUN (9 h): 9 mg/dL
- CRE (9 h): 0.2 mg/dL
- DBIL (9 h): 0.01 mg/dL
- GLC (9 h): 179 mg/dL
- K (9 h): 4.2 meq/L
- LDH (9 h): 41.2 IU/L
- Na (9 h): 144.2 meq/L
- PL (9 h): 135 mg/dL
- RALB (9 h): 2.5 g/dL
- TBIL (9 h): 0.044 mg/dL
- TC (9 h): 78 mg/dL
- TG (9 h): 30.6 mg/dL
- TP (9 h): 5.2 g/dL
- gamma-GTP (9 h): 1 IU/L
- TERMINAL_BW (24 h): 219.8 g
- APTT (24 h): 15.5 s
- Bas (24 h): 0%
- Eos (24 h): 1%
- Fbg (24 h): 290.8 mg/dL
- Hb (24 h): 13 g/dL
- Ht (24 h): 38.1%
- Lym (24 h): 74%
- MCH (24 h): 21.6 pg
- MCHC (24 h): 34.2%
- MCV (24 h): 62.9 fL
- Mono (24 h): 2.6%
- Neu (24 h): 22%
- PT (24 h): 12.6 s
- Plat (24 h): 115.1 x10_4/uL
- RBC (24 h): 605.2 x10_4/ul
- Ret (24 h): 7.5%
- WBC (24 h): 68.4 x10_2/uL
- KIDNEY_L (24 h): 1 g
- KIDNEY_R (24 h): 0.9 g
- KIDNEY_TOTAL (24 h): 1.9 g
- LIVER (24 h): 9.6 g
- ALP (24 h): 1840.6 IU/L
- ALT (24 h): 44 IU/L
- AST (24 h): 74 IU/L
- BUN (24 h): 17.4 mg/dL
- CRE (24 h): 0.2 mg/dL
- DBIL (24 h): 0.012 mg/dL
- GLC (24 h): 167.8 mg/dL
- K (24 h): 4.7 meq/L
- LDH (24 h): 55.2 IU/L
- Na (24 h): 142.2 meq/L
- PL (24 h): 144.8 mg/dL
- RALB (24 h): 2.6 g/dL
- TBIL (24 h): 0.03 mg/dL
- TC (24 h): 88 mg/dL
- TG (24 h): 57.8 mg/dL
- TP (24 h): 5.6 g/dL
- gamma-GTP (24 h): 1.2 IU/L
